According to patent publication US20110280913A1, “Methods and Compositions for Delivering Therapeutic Agents in the Treatment of B-Cell Related Disorders” (THE OHIO STATE UNIVERSITY, priority 2008, published 2011):

How the values were obtained:
CLL cells [1] = test: ADCC, 4-hour 51Cr-release assay; type: cell-based, human
Protocol: For ADCC experiments, CD56^+ and CD19^+ cells were negatively purified from whole blood obtained from either healthy volunteers or CLL subjects by magnetic-activated cell sorting according to the manufacturer's recommendations (MiniMACS; Miltenyi Biotec, Auburn, Calif.). The purity of enriched populations was always greater than 95% of the total yield as detected by CD19 and CD3 staining.
ADCC activity was determined by standard 4-hour ^51Cr-release assay. ^51Cr-labeled target cells (10^5 CLL cells/mL) were incubated with media alone or in the presence of various antibodies (10 μg/mL) at 37° C. for 30 minutes. Unbound antibody was washed off and the cells plated at 10^4 cells/well. Effector cells (natural killer [NK] cells from healthy donors or CLL subjects) were then added to the plates at indicated effector-to-target (E:T) ratios. After a 4-hour incubation, supernatants were removed and measured using a gamma counter. The percentage of specific cell lysis was determined by the equation: % lysis=100×(ER−SR)/(MR−SR), where ER, SR, and MR represent experimental, spontaneous, and maximum release, respectively. Data were normalized to the untreated control.

human monocytes = test: Antibody-dependent cellular phagocytosis by human monocytes; type: cell-based; conditions: data not shown
CD52 = test: Immunophenotyping (flow cytometry) of CD52 on CLL cells; type: cell-based, human; conditions: 0.5 μM, vs vehicle, data not shown
Protocol: (§1) Immunophenotyping was performed to determine the percentage and mean fluorescence intensity of CD20, CD19, CD5, CD23, CD38, CD3, and CD52 on CLL cells relative to a specific isotype control. Cells (10^6) were washed in PBS, stained with fluorochrome-labeled antibodies at 4° C., then rinsed in PBS and analyzed by flow cytometry (EPICS-XL; Beckman Coulter, Fullerton, Calif.). A total of 10,000 events were collected and analyzed using Windows Multiple Document Interface for Flow Cytometry (WinMDI). CD20, CD19, CD3, CD5, CD23, and CD38 antibodies were obtained from BD Biosciences (San Jose, Calif.), and CD52 antibody was obtained from Serotec (Raleigh, N.C.).

CD20 [2] = test: Intracellular CD20 staining (flow cytometry); type: cell-based, human
Protocol: CLL cells were incubated with a molar excess of rituximab to saturate the binding of extracellular CD20. Cells were washed twice with PBS and then fixed and permeablilized using the Cytofix/Cytoperm Kit (BD Biosciences PharMingen, San Diego, Calif.) according to the manufacturer's recommendations. Cells were then incubated with CD20-phycoerythrin (PE) antibody, washed twice in PBS, and analyzed by flow cytometry. To ensure the specificity of the staining procedure, binding of IgG1-k isotype antibody was also measured.

CLL cells [3] = test: Immunoliposome FAM-ODN uptake studies; type: cell-based, human
Protocol: An ethanol dilution method was modified to prepare the FAM-ODN-loaded immunoliposomes.^25 Briefly, protamine sulfate in citric acid (20 mM, pH 4) was mixed with lipids (DC-Chol/Egg-PC/PEG-DSPE [molar ratio]=28.0:70.0:2.0) at a mass ratio of lipids:protamine=12.5:0.3, followed by addition of ODN in citric acid (20 mM, pH 4) at ODN/lipids/protamine (weight ratio)=1:12.5:0.3. The complexes were then dialyzed against citric acid (20 mM, pH 4) for 1 hour and then further dialyzed against N-2-hydroxyethylpiperazine-N′-2-ethanesulfonic acid-buffered saline (145 mM NaCl, 20 mM N-2-hydroxyethylpiperazine-N′-2-ethanesulfonic acid, pH 7.4) overnight, using a DispoDialyzer (Spectrum Labs, Rancho Dominguez, Calif.) with a molecular weight cutoff of 10,000 Da. Liposome size distribution was analyzed by dynamic light scattering on a NICOMP Particle Sizer Model 370 (Particle Sizing Systems, Santa Barbara, Calif.).
A postinsertion method was adopted to incorporate antibody ligands into preformed liposomes containing FAM-ODN. In this method, rituximab, trastuzumab (anti-Her2), or alemtuzumab (anti-CD52) was incubated with 20× Traut reagent (2 hours at room temperature) to yield sulfhydryl-modified antibodies. The anti-CD20—sulfhydryl was then incubated with micelles of Mal-PEG-DSPE at a molar ratio of 1:10 and then incubated with FAM-ODN loaded liposomes for 1 hour at 37° C. Targeted liposomes with antibody-PEG-DSPE-to-lipid ratios of 1:1000 ([…]) were thus prepared.
CLL cells were incubated at 10^6 cells/mL for 1 hour at 37° C. with rituximab-, trastuzumab-, or alemtuzumab-coated immunoliposome-FAM-ODN (CODN=1.0 μM) and washed twice in PBS. Cells were kept in culture in RPMI 10% fetal bovine serum for an additional 1, 4, and 24 hours, respectively, in the presence of either 0.5 μM lenalidomide or vehicle control. […] Cells were visualized on a Nikon fluorescence microscope (magnification ×200).
The inventors herein used a FAM-ODN formulated into rituximab-coated immunoliposomes. […] Cells were visualized on a Nikon fluorescence microscope (magnification, ×200).

CD19 = test: Immunophenotyping (flow cytometry) of CD19 on CLL cells; type: cell-based, human; conditions: 0.5 μM, vs vehicle
Protocol: as §1

CD20 [4] = test: Immunophenotyping (flow cytometry) of CD20 on CLL cells; type: cell-based, human
Protocol: as §1
All analyses were performed by the Center for Biostatistics, The Ohio State University. Mixed effects models were fitted to the cytotoxicity data. Random effects associated with the interactions were always included in the models to ensure that error was not underestimated. SPSS software, version 13.0 (SPSS, Chicago, Ill.) was used for the statistical analysis. Nonparametric paired Wilcoxon signed ranked tests were performed to examine both the proportion and mean fluorescence intensity change of cells expressing specific antigens after treatment with lenalidomide or media for 48 hours. A paired t test was used to evaluate whether there was a change in CD20 expression level between cells treated with lenalidomide and untreated control.

[5] = rituximab-coated immunoliposome-FAM-ODN, 0.5 μM lenalidomide
[6] = dose range 0.05-3 μM, evaluated at 24, 48 and 72 hours

Nc1cccc2c1CN(C1CCC(=O)NC1=O)C2=O (stereo not shown) [lenalidomide]
rituximab-mediated ADCC (CLL cells [1]; cotreatment of autologous NK cells and primary CLL cells, 0.5 μM, 72 hours, vs NK-only controls, N=2, P=0.02): diminished | rituximab-mediated ADCC (CLL cells [1]; lenalidomide-pretreated CLL B cells, allogeneic NK cells, N=5, P<0.05): decrease | rituximab-mediated ADCC (CLL cells [1]; lenalidomide-pretreated CLL B cells, autologous NK cells, N=2, P<0.05): decrease | rituximab-mediated ADCC against target CLL subject cells (CLL cells [1]; lenalidomide-treated NK cells from a healthy donor, N=4, P=0.009): overall enhancement | antibody-dependent cellular phagocytosis (human monocytes): not modulated | CD52 expression on CLL cells (CD52): no changes | CLL subject samples with reduction of CD20 antigen surface expression (CD20 [2]; after lenalidomide treatment): 6 of 8 | intracellular CD20 fluorescence (CD20 [2]; compared with vehicle-treated controls, P=0.006): increased intracellular fluorescence | internalization of fluorochrome-labeled ODN from rituximab-coated immunoliposomes (CLL cells [3]; 0.5 μM lenalidomide after 1 h immunoliposome-FAM-ODN (1.0 μM), N=3): enhanced internalization | earliest time of enhanced ODN internalization (CLL cells [3]; [5]): 1 h | time of maximum effect on ODN internalization (CLL cells [3]; [5]): 24 h | CD19 expression on CLL cells (CD19): no changes | reduction in the proportion of CD20-expressing cells (CD20 [4]; 0.5 μM, 48 h, compared with vehicle-treated controls, n=18, P<0.001): at least 40% | reduction in relative mean fluorescence intensity of CD20-expressing cells (CD20 [4]; 0.5 μM, 48 h, compared with vehicle-treated controls, n=18, P=0.001): at least 40% | concentration of maximum effect on CD20 down-regulation (CD20 [4]; [6]): 0.5 µM | time of maximum effect on CD20 down-regulation (CD20 [4]; [6]): 72 h
